Consider 8 compounds from ChEMBL document CHEMBL1201862, “PubChem BioAssay data set” (2004).

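Protocol summary: plate cells (96-well), add compound at 5 concentrations, incubate 48 h, interpolate endpoints linearly. GI50: concentration for 50% inhibition of growth.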 Activity calls are given as the source filed them. No stated cut-off is given here; in the data, active = GI50 up to about 1.1 µM and inactive = higher.

Some test systems named below: SNB-19; KM12; UO-31; A498; NCI-H226; A549; OVCAR-5; RXF 393; 786-0; HCT-116; SW-620; SK-MEL-5; OVCAR-8; CAKI-1; UACC-257; NCI-H23; CCRF-CEM; LOX IMVI; MDA-N; HL-60.
Holding throughout (test): growth of human tumour cells (NCI), 48 h

Turning to `C=CCNS(=O)(=O)c1ncnc2[nH]cnc12`, the GI50 in the assay on SNB-19, in the assay with KM12, with UO-31, in the assay on A498, with NCI-H226 and in the assay on A549 was > 100 µM (inactive) in each case. Besides, the GI50 in the assay on OVCAR-5 was > 100 µM (inactive); in the assay with RXF 393, 59.7 µM (inactive); with 786-0, > 100 µM (inactive); in the assay on HCT-116 it was > 100 µM (inactive); with SW-620, > 100 µM (inactive); in the assay with SK-MEL-5, > 100 µM (inactive). For the same compound, the GI50 in the assay with OVCAR-8 was > 100 µM (inactive); with CAKI-1 it was 26.2 µM (inactive); with UACC-257, > 100 µM (inactive); in the assay with NCI-H23 it was > 100 µM (inactive); with CCRF-CEM it was > 100 µM (inactive); in the assay on LOX IMVI it was 67.9 µM (inactive). Moreover, in the assay with MDA-N, the GI50 is 82.8 µM (inactive).
As for `CC(=O)ON(C(C)=O)c1ccc(-c2nc3ccccc3s2)cc1`, the GI50 in the assay on SNB-19 was 34.7 µM (inactive); with KM12 it was 15.1 µM (inactive); with UO-31, 14.6 µM (inactive); with A498 it was 0.315 µM (active); in the assay with NCI-H226, 0.276 µM (active); in the assay on A549, 26.3 µM (inactive). For the same compound, the GI50 in the assay with OVCAR-5 is 34.2 µM (inactive); with RXF 393 it was 35.3 µM (inactive); with 786-0, 30.2 µM (inactive); in the assay on HCT-116, 24.5 µM (inactive); in the assay on SW-620 it was 26.2 µM (inactive); in the assay on SK-MEL-5, 24.5 µM (inactive). In addition, the GI50 is 21.2 µM (inactive) in the assay on OVCAR-8; 37 µM (inactive) in the assay on UACC-257; 26 µM (inactive) in the assay with NCI-H23; 7.35 µM (inactive) with CCRF-CEM; 25.5 µM (inactive) in the assay on LOX IMVI; 27.2 µM (inactive) in the assay with MDA-N.
`CN1CCN(CCCN2c3ccccc3Sc3ccc(C(F)(F)F)cc32)CC1`: the GI50 was 15.2 µM (inactive) in the assay on SNB-19; 5.14 µM (inactive) in the assay on KM12; 5.21 µM (inactive) in the assay on UO-31; 13.6 µM (inactive) in the assay on A498; 15.5 µM (inactive) in the assay on NCI-H226; 12.6 µM (inactive) in the assay on A549. The GI50 was 10.1 µM (inactive) in the assay on OVCAR-5; 6.14 µM (inactive) in the assay with HL-60; 7.93 µM (inactive) with 786-0; 8.04 µM (inactive) in the assay on HCT-116; 3.09 µM (inactive) with SK-MEL-5; 15.9 µM (inactive) in the assay with OVCAR-8. Further, the GI50 in the assay on CAKI-1 was 10.9 µM (inactive); with UACC-257, 2.6 µM (inactive); with NCI-H23, 14.4 µM (inactive); with LOX IMVI it was 4.57 µM (inactive); with MDA-N, 3.6 µM (inactive).
For the compound `Cc1ccc(S[C@@H](C)[C@@](O)(CF)CN(Cc2ccccc2)C(=O)C(F)(F)F)cc1`, the GI50 in the assay on SNB-19 is 23.4 µM (inactive); in the assay with UO-31, 16.6 µM (inactive); with A498, 11.5 µM (inactive); with A549 it was 14.8 µM (inactive); in the assay with OVCAR-5, 14.8 µM (inactive); in the assay with HL-60, 19.2 µM (inactive). Further, the GI50 was 16.7 µM (inactive) with 786-0; 11.4 µM (inactive) with HCT-116; 23.9 µM (inactive) in the assay on SW-620; 5.09 µM (inactive) in the assay with OVCAR-8; 25.5 µM (inactive) in the assay on CAKI-1; 20.9 µM (inactive) with UACC-257. Further, the GI50 in the assay on NCI-H23 is 18.4 µM (inactive); in the assay with CCRF-CEM, 11 µM (inactive); in the assay on LOX IMVI, 40.3 µM (inactive); in the assay on MDA-N it was 22.8 µM (inactive).
Consider `CCOC(=O)Nc1cc(NC(/C=N/NC(C)=O)C(=O)OCC)c(OC)cc1NC(C)=O` (stereo not given), for which the GI50 with SNB-19, with KM12, with UO-31, with A498, in the assay on NCI-H226 and in the assay with A549 was > 100 µM (inactive) in each case. In addition, the GI50 with OVCAR-5, with RXF 393, in the assay on 786-0, in the assay on HCT-116, with SW-620 and in the assay on SK-MEL-5 was > 100 µM (inactive) each time. Also, the GI50 in the assay on OVCAR-8, in the assay with CAKI-1, in the assay with UACC-257, in the assay on NCI-H23, with CCRF-CEM and in the assay on MDA-N was > 100 µM (inactive) in each case.
As to `O=C1C[C@H]2[C@@H](O1)[C@@H](O)CN1C(=O)c3ccccc3[C@H]21`, the GI50 with SNB-19, in the assay on KM12, in the assay with UO-31, with A498, with NCI-H226 and in the assay with A549 was > 100 µM (inactive) in each case. In addition, the GI50 in the assay on OVCAR-5, in the assay on RXF 393, in the assay with 786-0, in the assay on HCT-116, in the assay with SW-620 and in the assay on SK-MEL-5 was > 100 µM (inactive) in each case. In addition, the GI50 with OVCAR-8, with CAKI-1, in the assay on UACC-257, in the assay with NCI-H23, in the assay on CCRF-CEM and with LOX IMVI was > 100 µM (inactive) throughout. In the assay with MDA-N, the GI50 was > 100 µM (inactive).
As for `CCCN(CCc1ccc(-c2ccccc2)cc1)CCc1ccc2nn[nH]c2c1`, the GI50 was 13.1 µM (inactive) with SNB-19; 11.9 µM (inactive) in the assay on KM12; 9.31 µM (inactive) in the assay with UO-31; 17.3 µM (inactive) in the assay with A498; 15.8 µM (inactive) with NCI-H226; 13.1 µM (inactive) in the assay on A549. In addition, the GI50 in the assay with OVCAR-5 is 17.1 µM (inactive); in the assay on RXF 393 it was 12.2 µM (inactive); in the assay on 786-0, 11.7 µM (inactive); in the assay with HCT-116 it was 4.66 µM (inactive); with SW-620 it was 10.7 µM (inactive); in the assay with SK-MEL-5, 3.91 µM (inactive). In addition, the GI50 is 13.7 µM (inactive) in the assay with OVCAR-8; 12.6 µM (inactive) in the assay on CAKI-1; 4.84 µM (inactive) in the assay on UACC-257; 12.2 µM (inactive) with NCI-H23; 4.26 µM (inactive) with CCRF-CEM; 10.6 µM (inactive) in the assay on LOX IMVI. Further, in the assay with MDA-N, the GI50 is 6.07 µM (inactive).
As to `Oc1ccc(-c2nn3c(CCCCCCCCc4nnc5sc(-c6ccc(O)cc6)nn45)nnc3s2)cc1`, the GI50 in the assay on SNB-19, with KM12, with UO-31, in the assay on A498, in the assay with NCI-H226 and in the assay with A549 was > 100 µM (inactive) each time. The GI50 in the assay on OVCAR-5, with RXF 393, in the assay with 786-0, in the assay on HCT-116, in the assay with SW-620 and in the assay on SK-MEL-5 was > 100 µM (inactive) in each case. Also, the GI50 with OVCAR-8, in the assay on CAKI-1, with UACC-257, with NCI-H23, in the assay with CCRF-CEM and with LOX IMVI was > 100 µM (inactive) throughout. For the same compound, the GI50 in the assay on MDA-N is > 100 µM (inactive).
